Source: patent US20090062369A1, “USE OF SECRETORY PHOSPHOLIPASE A2 (SPLA2) INHIBITORS TO DECREASE SPLA2 LEVELS” (priority 2007, published 2009)

System: serum sPLA2
Assay: Effect of twice-a-day oral A-002 on serum sPLA2 levels in subjects with stable coronary artery disease (Example 6)
Type: in vivo, human
Experimental: The protocol for preparing standard curve, test, and quality control samples for use in the assay disclosed herein is set forth in Example 5. Samples are prepared according to this protocol, then loaded in duplicate onto a plate (Cayman catalog no. 485002 or equivalent) that has been pre-coated with a monoclonal sPLA2 antibody (“capture antibody”) that specifically binds sPLA2. In certain embodiments, the capture antibody may interact with a specific form of sPLA2, such as for example sPLA2 type IIA.
sPLA2 acetylcholinesterase:Fab′ conjugate (AChE:Fab′) (“conjugate”) (Cayman catalog no. 485000 or equivalent) is reconstituted in EIA buffer (Cayman catalog no. 400060 or equivalent). Cayman EIA buffer is 1M phosphate, pH 7.0, 1% BSA, 4M NaCl, 10 mM EDTA, and 0.1% sodium azide. Reconstituted conjugate is added to each well of the plate. The conjugate binds a different sPLA2 epitope than the capture antibody, allowing the capture antibody and the conjugate to form a “sandwich” that is immobilized on the plate. Excess reagents are washed away, and the plate is covered and incubated overnight at 2-8° C.
Prior to development, the wells are washed five to six times with wash buffer (Cayman catalog no. 400062 or equivalent). To develop the plate, Ellman's Reagent (Cayman catalog no. 400050 or equivalent) is reconstituted in water and added to each well according to manufacturer instructions. The reconstituted Ellman's Reagent must be used the same day it is prepared because it is unstable. Ellman's Reagent contains an AChE substrate. Specifically, Ellman's Reagent contains acetylthiocholine and 5,5′-dithio-bis-(2-nitrobenzoic acid). Hydrolysis of acetylthiocholine by acetylcholinesterase produces thiocholine, which reacts with 5,5′-dithio-bis-(2-nitrobenzoic acid) to produce 5-thio-2-nitrobenzoic acid. 5-thio-2-nitrobenzoic acid has a strong absorbance at 412 nm. The intensity of absorbance at this wavelength is directly proportional to the concentration of bound conjugate, which is in turn is directly proportional to the concentration of sPLA2 present (Absorbance a [AChE:Fab′ conjugate] α [sPLA2]). During the development step, the plate is shaken, preferably in the dark. In certain embodiments the development time for the assay is 0.5 to 3 hours, preferably 1 to 1.5 hours. At the end of the development period, the high sPLA2 standards should have greater yellow color development than the zero standards. Absorbance of each well is measured at 400-420 nm using a micro-well plate reader. In certain embodiments, absorbance is measured at about 405 nm.
Absorbance readings for duplicate wells are averaged, and the relative standard deviation and % CV are calculated. Standard curve data are used to generate a four parameter curve, and quality control and test samples are measured against the appropriate standard curve (i.e., the standard curve with the same serum content). In order for a test to be considered valid, variation between duplicate wells should be no more than about 25%, and negative controls (blanks) for each standard curve should have a mean absorbance of less than about 0.3.
The method disclosed herein for measuring sPLA2 levels in serum was utilized to determine the effect of administering certain sPLA2 inhibitors on sPLA2 levels in 84 human subjects. The subjects included 24 subjects with diabetes, 32 subjects with metabolic syndrome, and 75 subjects receiving statin treatment. Subjects were administered the sPLA2 inhibitor A-002, a prodrug form of A-001, twice a day at varying dosages from 50 to 500 mg. The structures of A-002and A-001 are set forth below. At two weeks and four weeks after the first administration, sPLA2 levels were measured and compared to pre-administration baseline levels.
84 subjects with stable coronary artery disease were randomized to receive placebo or A-002 via oral administration twice a day over a four week administration period. […]

[1] = A-002 (500 mg), non-statin subgroup of ITT population
[2] = A-002 Total (all dose groups), ITT subjects exhibiting at least 3 out of 5 metabolic syndrome criteria
[3] = A-002 Total (all dose groups), non-statin subgroup of ITT population
[4] = Total (all doses), ITT population
[5] = Total (all doses), diabetes subgroup of ITT population
[6] = Total (all doses), non-diabetes subgroup of ITT population
[7] = Total (all doses), statin subgroup of ITT population

Q: What does the source list for CCc1c(C(=O)C(N)=O)c2c(OCC(=O)OC)cccc2n1Cc1ccccc1 [A-002, [[3-(2-Amino-1,2-dioxoethyl)-2-ethyl-1-(phenylmethyl)-1H-indol-4-yl]oxy]acetic acid methyl ester]?
A: sPLA2 level, Week 4, Range (A-002 (500 mg), ITT subjects exhibiting at least 3 out of 5 metabolic syndrome criteria): 0.05 to 0.10 ng/mL; sPLA2 level, Baseline, Mean [1]: 2.30 ng/mL; sPLA2 level, Baseline, Median [1]: 2.30 ng/mL; sPLA2 level, Baseline, Range [1]: 1.80 to 2.80 ng/mL; sPLA2 level, Change from baseline at week 2, Mean [1]: -2.25 ng/mL; sPLA2 level, Change from baseline at week 2, Median [1]: -2.25 ng/mL; sPLA2 level, Change from baseline at week 2, Range [1]: -2.75 to -1.75 ng/mL; sPLA2 level, Change from baseline at week 4, Mean [1]: -2.08 ng/mL; sPLA2 level, Change from baseline at week 4, Median [1]: -2.08 ng/mL; sPLA2 level, Change from baseline at week 4, Range [1]: -2.40 to -1.75 ng/mL; sPLA2 level, Week 2, Mean [1]: 0.05 ng/mL; sPLA2 level, Week 2, Median [1]: 0.05 ng/mL; sPLA2 level, Week 2, Range [1]: 0.05 to 0.05 ng/ml; sPLA2 level, Week 4, Mean [1]: 0.23 ng/mL; sPLA2 level, Week 4, Median [1]: 0.23 ng/mL; sPLA2 level, Week 4, Range [1]: 0.05 to 0.40 ng/mL; sPLA2 level, Baseline, Mean [2]: 3.17 ng/mL; sPLA2 level, Baseline, Median [2]: 2.70 ng/mL; sPLA2 level, Baseline, Range [2]: 0.05 to 8.80 ng/mL; sPLA2 level, Change from baseline at week 2, Mean [2]: -2.41 ng/mL; sPLA2 level, Change from baseline at week 2, Median [2]: -2.45 ng/mL; sPLA2 level, Change from baseline at week 2, Range [2]: −5.30 to +2.85 ng/ml; sPLA2 level, Change from baseline at week 4, Mean [2]: -2.76 ng/mL; sPLA2 level, Change from baseline at week 4, Median [2]: -2.30 ng/mL; sPLA2 level, Change from baseline at week 4, Range [2]: -6.40 to 0.00 ng/mL; sPLA2 level, Week 2, Mean [2]: 0.65 ng/mL; sPLA2 level, Week 2, Median [2]: 0.30 ng/mL; sPLA2 level, Week 2, Range [2]: 0.05 to 4.00 ng/mL; sPLA2 level, Week 4, Mean [2]: 0.43 ng/mL; sPLA2 level, Week 4, Median [2]: 0.25 ng/mL; sPLA2 level, Week 4, Range [2]: 0.05 to 2.40 ng/mL; sPLA2 level, Baseline, Mean [3]: 2.92 ng/mL; sPLA2 level, Baseline, Median [3]: 2.80 ng/mL; sPLA2 level, Baseline, Range [3]: 1.80 to 4.90 ng/mL; sPLA2 level, Change from baseline at week 2, Mean [3]: -2.13 ng/mL; sPLA2 level, Change from baseline at week 2, Median [3]: -2.00 ng/mL; sPLA2 level, Change from baseline at week 2, Range [3]: -2.75 to -1.75 ng/mL; sPLA2 level, Change from baseline at week 4, Mean [3]: -2.49 ng/mL; sPLA2 level, Change from baseline at week 4, Median [3]: -2.20 ng/mL; sPLA2 level, Change from baseline at week 4, Range [3]: -4.40 to -1.70 ng/mL; sPLA2 level, Week 2, Mean [3]: 0.58 ng/mL; sPLA2 level, Week 2, Median [3]: 0.48 ng/mL; sPLA2 level, Week 2, Range [3]: 0.05 to 1.30 ng/mL; sPLA2 level, Week 4, Mean [3]: 0.65 ng/mL; sPLA2 level, Week 4, Median [3]: 0.50 ng/mL; sPLA2 level, Week 4, Range [3]: 0.05 to 1.20 ng/mL; serum sPLA2 levels (ITT population, stable coronary artery disease, A-002 50, 100, 250 or 500 mg oral twice a day, end of weeks two and four vs baseline, dose-independent): decreased serum sPLA2 levels; sPLA2 Change from baseline at week 2, Mean [4]: -2.35 ng/mL; sPLA2 Change from baseline at week 2, Median [4]: -2.40 ng/mL; sPLA2 Change from baseline at week 2, Range [4]: −5.30 to +2.85 ng/ml; sPLA2 Change from baseline at week 4, Mean [4]: -2.53 ng/mL; sPLA2 Change from baseline at week 4, Median [4]: -2.35 ng/mL; sPLA2 Change from baseline at week 4, Range [4]: -6.40 to 0.20 ng/mL; sPLA2 level, Baseline, Mean [4]: 2.99 ng/mL; sPLA2 level, Baseline, Median [4]: 2.70 ng/mL; sPLA2 level, Baseline, Range [4]: 0.05 to 8.80 ng/mL; sPLA2 level, Week 2, Mean [4]: 0.60 ng/mL; sPLA2 level, Week 2, Median [4]: 0.30 ng/mL; sPLA2 level, Week 2, Range [4]: 0.05 to 4.40 ng/mL; sPLA2 level, Week 4, Mean [4]: 0.51 ng/mL; sPLA2 level, Week 4, Median [4]: 0.35 ng/mL; sPLA2 level, Week 4, Range [4]: 0.05 to 2.40 ng/mL; sPLA2 Change from baseline at week 2, Mean [5]: -2.03 ng/mL; sPLA2 Change from baseline at week 2, Median [5]: -2.40 ng/mL; sPLA2 Change from baseline at week 2, Range [5]: −4.80 to +2.85 ng/ml; sPLA2 Change from baseline at week 4, Mean [5]: -2.31 ng/mL; sPLA2 Change from baseline at week 4, Median [5]: -1.90 ng/mL; sPLA2 Change from baseline at week 4, Range [5]: −5.70 to +0.20 ng/ml; sPLA2 level, Baseline, Mean [5]: 2.91 ng/mL; sPLA2 level, Baseline, Median [5]: 2.75 ng/mL; sPLA2 level, Baseline, Range [5]: 0.05 to 6.00 ng/mL; sPLA2 level, Week 2, Mean [5]: 0.67 ng/mL; sPLA2 level, Week 2, Median [5]: 0.50 ng/mL; sPLA2 level, Week 2, Range [5]: 0.05 to 2.90 ng/mL; sPLA2 level, Week 4, Mean [5]: 0.53 ng/mL; sPLA2 level, Week 4, Median [5]: 0.50 ng/mL; sPLA2 level, Week 4, Range [5]: 0.05 to 1.50 ng/mL; sPLA2 Change from baseline at week 2, Mean [6]: -2.48 ng/mL; sPLA2 Change from baseline at week 2, Median [6]: -2.40 ng/mL; sPLA2 Change from baseline at week 2, Range [6]: -5.30 to -0.40 ng/mL; sPLA2 Change from baseline at week 4, Mean [6]: -2.63 ng/mL; sPLA2 Change from baseline at week 4, Median [6]: -2.45 ng/mL; sPLA2 Change from baseline at week 4, Range [6]: -6.40 to -0.55 ng/mL; sPLA2 level, Baseline, Mean [6]: 3.02 ng/mL; sPLA2 level, Baseline, Median [6]: 2.60 ng/mL; sPLA2 level, Baseline, Range [6]: 0.60 to 8.80 ng/mL; sPLA2 level, Week 2, Mean [6]: 0.57 ng/mL; sPLA2 level, Week 2, Median [6]: 0.30 ng/mL; sPLA2 level, Week 2, Range [6]: 0.05 to 4.40 ng/mL; sPLA2 level, Week 4, Mean [6]: 0.51 ng/mL; sPLA2 level, Week 4, Median [6]: 0.30 ng/mL; sPLA2 level, Week 4, Range [6]: 0.05 to 2.40 ng/mL; sPLA2 Change from baseline at week 2, Mean [7]: -2.37 ng/mL; sPLA2 Change from baseline at week 2, Median [7]: -2.43 ng/mL; sPLA2 Change from baseline at week 2, Range [7]: −5.30 to +2.85 ng/ml; sPLA2 Change from baseline at week 4, Mean [7]: -2.53 ng/mL; sPLA2 Change from baseline at week 4, Median [7]: -2.43 ng/mL; sPLA2 Change from baseline at week 4, Range [7]: −6.40 to +0.20 ng/ml; sPLA2 level, Baseline, Mean [7]: 3.00 ng/mL; sPLA2 level, Baseline, Median [7]: 2.70 ng/mL; sPLA2 level, Baseline, Range [7]: 0.05 to 8.80 ng/mL; sPLA2 level, Week 2, Mean [7]: 0.60 ng/mL; sPLA2 level, Week 2, Median [7]: 0.30 ng/mL; sPLA2 level, Week 2, Range [7]: 0.05 to 4.40 ng/mL; sPLA2 level, Week 4, Mean [7]: 0.50 ng/mL; sPLA2 level, Week 4, Median [7]: 0.30 ng/mL; sPLA2 level, Week 4, Range [7]: 0.05 to 2.40 ng/mL; sPLA2 levels compared to pre-administration baseline (all subject subpopulations (diabetic/non-diabetic, metabolic syndrome/non-metabolic syndrome, statin/non-statin), all dosages 50 to 500 mg twice a day, two and four weeks): substantial decrease in sPLA2 levels; serum sPLA2 levels (diabetic and non-diabetic subpopulations, A-002 50-500 mg oral twice a day, weeks two and four): decrease was observed; serum sPLA2 levels (metabolic syndrome subpopulation, A-002 50-500 mg oral twice a day, weeks two and four): decrease was observed; serum sPLA2 levels (statin and non-statin subpopulations, A-002 50-500 mg oral twice a day, weeks two and four): decrease was observed
